This test deals with T1, KCNT1 (KNa1.1, Slack) (Homo sapiens, UniProt Q5JUK3).
T1 construct: expressed in transfected cells; host or cells: HEK-TREX (tetracycline-inducible HEK cell line)
T1 sequence (Q5JUK3 1-1230): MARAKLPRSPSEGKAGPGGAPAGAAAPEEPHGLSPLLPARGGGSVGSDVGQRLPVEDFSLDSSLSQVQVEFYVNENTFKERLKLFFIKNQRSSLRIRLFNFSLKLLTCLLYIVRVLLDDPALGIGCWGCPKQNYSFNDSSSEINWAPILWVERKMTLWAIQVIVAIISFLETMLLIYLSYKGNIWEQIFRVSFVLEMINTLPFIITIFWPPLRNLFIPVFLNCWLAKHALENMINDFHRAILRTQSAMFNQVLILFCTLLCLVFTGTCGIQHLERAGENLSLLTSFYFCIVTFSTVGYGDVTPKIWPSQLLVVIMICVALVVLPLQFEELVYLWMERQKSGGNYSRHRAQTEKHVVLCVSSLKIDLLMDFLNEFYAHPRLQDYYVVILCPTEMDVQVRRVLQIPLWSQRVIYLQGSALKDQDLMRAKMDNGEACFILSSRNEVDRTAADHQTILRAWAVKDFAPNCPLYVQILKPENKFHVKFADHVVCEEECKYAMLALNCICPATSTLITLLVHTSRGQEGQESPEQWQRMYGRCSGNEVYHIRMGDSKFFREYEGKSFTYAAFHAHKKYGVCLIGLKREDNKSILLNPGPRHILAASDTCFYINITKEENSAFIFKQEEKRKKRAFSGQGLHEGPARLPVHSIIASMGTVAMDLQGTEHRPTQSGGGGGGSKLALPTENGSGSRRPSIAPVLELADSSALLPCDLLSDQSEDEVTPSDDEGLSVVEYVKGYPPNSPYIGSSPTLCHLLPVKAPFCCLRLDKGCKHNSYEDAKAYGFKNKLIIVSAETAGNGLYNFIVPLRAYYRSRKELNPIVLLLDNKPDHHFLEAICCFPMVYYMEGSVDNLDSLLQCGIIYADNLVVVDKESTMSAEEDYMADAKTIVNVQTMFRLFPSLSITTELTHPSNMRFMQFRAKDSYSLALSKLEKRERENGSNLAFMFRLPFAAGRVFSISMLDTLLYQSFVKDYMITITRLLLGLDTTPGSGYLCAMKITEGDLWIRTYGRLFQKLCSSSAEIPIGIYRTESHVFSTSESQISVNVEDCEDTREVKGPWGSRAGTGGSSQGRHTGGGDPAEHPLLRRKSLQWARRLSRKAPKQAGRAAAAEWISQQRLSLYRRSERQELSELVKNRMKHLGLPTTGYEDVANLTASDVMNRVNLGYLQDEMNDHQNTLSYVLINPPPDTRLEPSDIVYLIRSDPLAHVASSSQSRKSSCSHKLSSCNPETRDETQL
The test is described as follows: KCNT1 patch clamp assay (SyncroPatch 384PE automated patch clamp). The test is classed as cell-based. The conditions noted are these: tetracycline inducible HEK-TREX cell line; perforated patch; step from −80 mV to 0 mV; room temperature; read-out: KCNT1-WT IC50. A digest of the protocol:
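Tetracycline-inducible HEK-TREX cells; perforated-patch (10 μM escin) population recordings at room temperature, holding −80 mV with 100 ms step to 0 mV.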

On to `C[C@H](NC(=O)c1cc(C(F)(F)F)nn1C)c1nc(-c2ccnc(OCC(F)F)c2)no1` [Compound 211, (S)—N-(1-(3-(2-(2,2-difluoroethoxy)pyridin-4-yl)-1,2,4-oxadiazol-5-yl)ethyl)-1-methyl-3-(trifluoromethyl)-1H-pyrazole-5-carboxamide], for which the half-inhibitory concentration (IC50) is at most 1 µM.

For `Cc1nn(C(C)C)cc1C(=O)NC(C)c1nc(-c2ccc(C(F)(F)F)cc2)no1` (centres unmarked) [Compound 98], the IC50 was 1 to 20 µM.

Consider `CC(C)OC(=O)N[C@@H](C)c1nc(-c2ccnc(C3CC3)c2)no1` [Compound 277], for which the IC50 is 1 to 20 µM.

As to `C[C@H](NC(=O)c1cc(C(F)(F)F)nn1C(F)F)c1nc(-c2cccc(Cl)c2)no1` (single isomer, unassigned) [Compound 83], the IC50 is 1 to 20 µM.

Turning to `CC(NC(=O)c1cc(C(F)(F)F)nn1C)c1nc(-c2cccc(S(C)(=O)=O)c2)no1` (centres unmarked) [Compound 179, 1-methyl-N-(1-(3-(3-(methylsulfonyl)phenyl)-1,2,4-oxadiazol-5-yl)ethyl)-3-(trifluoromethyl)-1H-pyrazole-5-carboxamide], the IC50 was in the range of 1 to 20 µM.

For `CN(C)C(=O)C[C@H](NC(=O)c1cc(C(F)(F)F)nn1C)c1nc(-c2cccc(F)c2)no1` (single isomer, unassigned) [Compound 136], the 50% inhibitory concentration (IC50) is 1 to 20 µM.

For `C[C@H](NC(=O)c1cc(C(F)F)nn1C)c1nc(-c2ccnc(C3CCCC3)c2)no1` [Compound 308, (S)—N-(1-(3-(2-cyclopentylpyridin-4-yl)-1,2,4-oxadiazol-5-yl)ethyl)-3-(difluoromethyl)-1-methyl-1H-pyrazole-5-carboxamide], the 50% inhibitory concentration (IC50) was at most 1 µM.

As for `Cn1nc(C(F)(F)F)cc1C(=O)NC(CNC(=O)OCc1ccccc1)c1nc(-c2cccc(F)c2)no1` (centres unmarked) [Compound 157, benzyl N-[2-[3-(3-fluorophenyl)-1,2,4-oxadiazol-5-yl]-2-[[2-methyl-5-(trifluoromethyl)pyrazole-3-carbonyl]amino]ethyl]carbamate], the IC50 was in the range of 1 to 20 µM.

`C[C@H](NC(=O)c1cc(C(F)(F)F)nn1C)c1nc(-c2ccnc(OC3CC3)c2)no1` [Compound 207, (S)—N-(1-(3-(2-cyclopropoxypyridin-4-yl)-1,2,4-oxadiazol-5-yl)ethyl)-1-methyl-3-(trifluoromethyl)-1H-pyrazole-5-carboxamide]: the IC50 was at most 1 µM.

In the case of `Cn1nc(C(F)(F)F)cc1C(=O)NC(CNS(C)(=O)=O)c1nc(-c2cccc(F)c2)no1` (centres unmarked) [Compound 169], the half-inhibitory concentration (IC50) was in the range of 1 to 20 µM.

On to `Cc1nn(C(C)C)cc1C(=O)N[C@@H](C)c1nc(-c2cc(F)cc(Cl)c2)no1` [Compound 91], for which the IC50 is at most 1 µM.

For the compound `Cn1nc(C(F)(F)F)cc1C(=O)NC1(c2nc(-c3cccc(F)c3)no2)CCOC1` (centres unmarked) [Compound 148], the half-maximal inhibitory concentration (IC50) was in the range of 1 to 20 µM.

On to `C[C@H](NC(=O)c1cc(C(F)(F)F)nn1C)c1nc(-c2ccnc(OC3CC(F)(F)C3)c2)no1` [Compound 208, (S)—N-(1-(3-(2-(3,3-difluorocyclobutoxy)pyridin-4-yl)-1,2,4-oxadiazol-5-yl)ethyl)-1-methyl-3-(trifluoromethyl)-1H-pyrazole-5-carboxamide], for which the half-inhibitory concentration (IC50) is at most 1 µM.

In the case of `CC(C)Oc1cc(-c2noc([C@H](C)NC(=O)c3cc(-c4ccc(F)cc4)nn3C)n2)ccn1` [Compound 223, (S)-3-(4-fluorophenyl)-N-(1-(3-(2-isopropoxypyridin-4-yl)-1,2,4-oxadiazol-5-yl)ethyl)-1-methyl-1H-pyrazole-5-carboxamide], the IC50 was at most 1 µM.

For the compound `C[C@H](NC(=O)OC(C)(C)C)c1nc(-c2ccnc(C(F)F)c2)no1` [Compound 291, tert-butyl (S)-(1-(3-(2-(difluoromethyl)pyridin-4-yl)-1,2,4-oxadiazol-5-yl)ethyl)carbamate], the IC50 lay in the range of 1 to 20 µM.

Consider `C[C@H](NC(=O)c1cc(C(F)(F)F)nn1C)c1nc(-c2ccnc(CN(C)C)c2)no1` [Compound 260, (S)—N-(1-(3-(2-((dimethylamino)methyl)pyridin-4-yl)-1,2,4-oxadiazol-5-yl)ethyl)-1-methyl-3-(trifluoromethyl)-1H-pyrazole-5-carboxamide], for which the IC50 is at least 20 µM.

As to `CC[C@@H](NC(=O)c1cc(C2CC2)nn1C)c1nc(-c2cccc(F)c2)no1` [Compound 61], the half-inhibitory concentration (IC50) is at most 1 µM.

As to `CC[C@H](NC(=O)OC(C)(C)C)c1nc(-c2ccnc(C3CC3)c2)no1` [Compound 247, tert-butyl (S)-(1-(3-(2-cyclopropylpyridin-4-yl)-1,2,4-oxadiazol-5-yl)propyl)carbamate], the IC50 was at most 1 µM.

Regarding `Cn1nc(C(F)(F)F)cc1C(=O)NC(c1nc(-c2cccc(F)c2)no1)C1COC1` (centres unmarked) [Compound 147], the IC50 is 1 to 20 µM.

For the compound `C[C@H](NC(=O)c1cn(C)nc1C(C)(C)C)c1nc(-c2cccc(F)c2)no1` [Compound 162], the IC50 lay within 1 to 20 µM.

Take `CC(NC(=O)c1cc(C2CC2)nn1C)c1nc(-c2cccc(Cl)c2)no1` (centres unmarked) [Compound 6]: the IC50 is at most 1 µM.

For `CC(NC(=O)c1cc(C2CC2)nn1C)c1nc(-c2cccc(C(F)(F)F)c2)no1` (centres unmarked) [Compound 12], the half-inhibitory concentration (IC50) was at most 1 µM.

Take `C[C@H](NC(=O)OC(C)(C)C)c1nc(-c2ccnc(C3CC3)c2)no1` [Compound 288, tert-butyl (S)-(1-(3-(2-cyclopropylpyridin-4-yl)-1,2,4-oxadiazol-5-yl)ethyl)carbamate]: the IC50 was at most 1 µM.

As for `COCCC(NC(=O)c1cc(C(F)(F)F)nn1C)c1nc(-c2cccc(F)c2)no1` (centres unmarked) [Compound 170], the IC50 is at most 1 µM.

In the case of `Cn1nc(C(F)(F)F)cc1C(=O)NC1(c2nc(-c3cccc(F)c3)no2)COC1` [Compound 119], the IC50 is at most 1 µM.

As to `C[C@H](NC(=O)c1cc(C(F)F)nn1C1CC1)c1nc(-c2cccc(F)c2)no1` [Compound 132], the IC50 was at most 1 µM.

Regarding `C[C@H](NC(=O)c1cc(C(F)(F)F)nn1CCN(C)C)c1nc(-c2ccnc(C(F)(F)F)c2)no1` [Compound 243, (S)-1-(2-(dimethylamino)ethyl)-3-(trifluoromethyl)-N-(1-(3-(2-(trifluoromethyl)pyridin-4-yl)-1,2,4-oxadiazol-5-yl)ethyl)-1H-pyrazole-5-carboxamide], the IC50 is at most 1 µM.

In the case of `Cn1nc(C(F)(F)F)cc1C(=O)N[C@H](CC(=O)NCCO)c1nc(-c2cccc(F)c2)no1` [Compound 122], the IC50 was at least 20 µM.

For the compound `C[C@H](NC(=O)c1ccnn1C1CC1)c1nc(-c2ccnc(C3CC3)c2)no1` [Compound 305, 2-cyclopropyl-N-[(1S)-1-[3-(2-cyclopropyl-4-pyridyl)-1,2,4-oxadiazol-5-yl]ethyl]pyrazole-3-carboxamide], the 50% inhibitory concentration (IC50) was at most 1 µM.

For `CC(C)OCc1cc(-c2noc([C@H](C)NC(=O)c3cc(C(F)(F)F)nn3C)n2)ccn1` [Compound 259, N-[(1S)-1-[3-[2-(isopropoxymethyl)-4-pyridyl]-1,2,4-oxadiazol-5-yl]ethyl]-2-methyl-5-(trifluoromethyl)pyrazole-3-carboxamide], the IC50 was in the range of 1 to 20 µM.

In the case of `CC(NC(=O)c1cc(C(F)(F)F)nn1C)c1nc(-c2cc(F)cc(F)c2)no1` (centres unmarked) [Compound 103], the IC50 was at most 1 µM.

Turning to `Cn1nc(C(F)(F)F)cc1C(=O)NC(CN)c1nc(-c2cccc(F)c2)no1` (centres unmarked) [Compound 167, N-[2-amino-1-[3-(3-fluorophenyl)-1,2,4-oxadiazol-5-yl]ethyl]-2-methyl-5-(trifluoromethyl)pyrazole-3-carboxamide], the IC50 was in the range of 1 to 20 µM.

For the compound `CC[C@@H](NC(=O)c1cc(C(F)(F)F)nn1C)c1nc(-c2ccnc(C3CC3)c2)no1` [Compound 266, N-[(1R)-1-[3-(2-cyclopropyl-4-pyridyl)-1,2,4-oxadiazol-5-yl]propyl]-2-methyl-5-(trifluoromethyl)pyrazole-3-carboxamide], the IC50 was at most 1 µM.

As to `CC[C@H](NC(=O)c1cc(C(F)F)nn1C)c1nc(-c2cccc(F)c2)no1` [Compound 120], the IC50 was at most 1 µM.

Consider `Cc1cccc(-c2noc(C(C)NC(=O)c3cc(C)nn3C(C)C)n2)c1` (centres unmarked) [Compound 22], for which the IC50 is at most 1 µM.
